# Results from US10689394B2, “Thieno[2,3-b]pyridine derivative, quinoline derivative, and use thereof” (The University of Tokyo, priority 2016, dated 2020).
# Assays:
# [1] = biological target: T1, complex formation by Derlin-1 (Homo sapiens, UniProt Q9BUN8); assay: Inhibition of complex formation by Derlin-1; format: cell-based; settings: under conditions for inhibiting the binding between mutant SOD1 and Derlin-1
# T1 sequence (Q9BUN8 1-251): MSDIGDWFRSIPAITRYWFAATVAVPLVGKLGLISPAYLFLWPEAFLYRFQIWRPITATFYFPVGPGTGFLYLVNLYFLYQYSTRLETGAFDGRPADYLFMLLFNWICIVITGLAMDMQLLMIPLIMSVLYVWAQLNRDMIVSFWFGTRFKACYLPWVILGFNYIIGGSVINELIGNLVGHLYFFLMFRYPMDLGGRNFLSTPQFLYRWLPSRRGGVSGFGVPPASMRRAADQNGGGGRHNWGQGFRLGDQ
# Excerpt: (§1) In the above-described SOD1-Derlin-1-binding inhibition experiment, SOD1 G93A that is a representative mutant SOD1 associated with the onset of the pathologic conditions of ALS was used. According to previous studies, however, it has become clear that 122 types of ALS-related mutant SOD1s bind to Derlin-1 (Fujisawa et al., Ann Neurol 72, 739-749, (2012)).
# [2] = system: binding between 122 types of ALS-related mutant SOD1s and Derlin-1; assay: Cell-based co-immunoprecipitation with 122 types of ALS-related mutant SOD1s; parameters: species or system human; settings: co-immunoprecipitation at cell level, FIG. 2 to FIG. 9
# Method: Transfection into the HEK293A cells was carried out using PEI-Max (Polyscience) at a ratio of 3 μL of PEI-Max to 1 μg of plasmid. DMEM was mixed with PEI-Max, and the mixture was then left at rest for 5 minutes. Thereafter, the reaction mixture was added to the plasmid DNA dissolved in DMEM, and the thus obtained mixture was further left at rest for 15 minutes. After seeding, the culture was carried out for 12 to 24 hours, and the resultant was then added to a culture medium of cells, in which the medium had been exchanged with DMEM supplemented only with 10% FBS.
# pcDNA3.0-Derlin-1-HA, pcDNA3.0-Flag-SOD1 G93A, and 123 types of other mutants.
# After the transfection on a 24-well plate, the cells were cultured for 12 hours or 24 hours, and the obtained cell culture was exchanged with 200 μL of medium. Thereafter, 1% DMSO or various types of compounds having each different concentration were added into the culture. Thirty-six hours or twenty-four hours later, the cells were incubated in the IP lysis buffer (300 μL/well) at 4° C. for 25 minutes, so that the cells were lysed. The cell lysate was centrifuged at 4° C. at 15000 rpm for 10 minutes, and a supernatant was then recovered. To this supernatant, Anti-Flag M2 affinity gel was added in a liquid amount of 20 μL, and they were allowed to react with each other by subjecting the obtained mixture to inversion mixing at 4° C. for 25 minutes. […]
# [3] = biological target: T2, binding between ALS-related mutant SOD1 (Flag-SOD1 G93A) and Derlin-1 (Derlin-1-HA) (Homo sapiens, UniProt P00441+Q9BUN8, G94A); assay: Cell-based co-immunoprecipitation assay of mutant SOD1 (G93A)-Derlin-1 binding; parameters: key to Activity value (score): a compound exhibiting no inhibitory activity is set at 0; a compound exhibiting inhibitory activity is set at 1; a compound exhibiting significant inhibitory activity is set at 2; a compound having higher inhibitory activity than the compound of Example 1 is set at 3
# T2 construct: expressed in transfected cells; host or cells: HEK293A
# T2 sequence (P00441 whole entry G94A, species assumed, one chain of several): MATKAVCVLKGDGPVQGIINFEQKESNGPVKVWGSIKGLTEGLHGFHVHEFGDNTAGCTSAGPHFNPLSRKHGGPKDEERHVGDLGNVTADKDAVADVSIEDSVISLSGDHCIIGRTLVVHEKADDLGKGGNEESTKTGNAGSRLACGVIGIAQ
# dimerization of SOD1 = dimerization of SOD1 (Homo sapiens, UniProt P00441); assay: Inhibition of dimerization of SOD1; format: cell-based; settings: under conditions for inhibiting the binding between mutant SOD1 and Derlin-1
# dimerization of SOD1, sequence (P00441 whole entry): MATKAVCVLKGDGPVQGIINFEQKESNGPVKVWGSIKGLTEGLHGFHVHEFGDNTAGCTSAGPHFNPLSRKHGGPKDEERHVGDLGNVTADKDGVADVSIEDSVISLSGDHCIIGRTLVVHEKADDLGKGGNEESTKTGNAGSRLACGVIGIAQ
# Excerpt: as §1
compound,measurement,setting,value
"C=CCN(C(=O)c1sc2nc(-c3cccnc3)ccc2c1N)c1ccccc1 [Example 1, N-allyl-3-amino-N-phenyl-6-(3-pyridinyl)thieno[2,3-b]pyridine-2-carboxamide]",inhibitory activity on complex formation by Derlin-1,[1],did not exhibit inhibitory activity
same,inhibition of binding between multiple types of mutant SOD1s and Derlin-1,[2],inhibits the binding between all of the mutant SOD s and Derlin-1
same,"binding between mutant SOD1 and Derlin-1 (co-precipitated Derlin-1, IB:HA band)","[3]; 5 μM, 10 μM and 20 μM added to HEK293A cell culture, FIG. 1",the binding between mutant SOD1 and Derlin-1 was inhibited
same,Activity value (score),"[3]; assay concentration 20 μM, HEK293A cells overexpressing Flag-SOD1 G93A and Derlin-1-HA",2
same,inhibitory activity on dimerization of SOD1,dimerization of SOD1,did not exhibit inhibitory activity
